Measurements as given in patent US20250313900A1, “COMPOSITIONS AND THERAPEUTIC AGENTS FOR MODULATING INFLAMMATORY RESPONSES ON BOTH TUMOR AND IMMUNE CELLS” (THE METHODIST HOSPITAL, priority 2022, published 2025).

T1: Tumor necrosis factor receptor-associated factor-6 (TRAF6) (in HCC827-CT cells) (human, UniProt Q9Y4K3 1-522)
T1 sequence (looked up): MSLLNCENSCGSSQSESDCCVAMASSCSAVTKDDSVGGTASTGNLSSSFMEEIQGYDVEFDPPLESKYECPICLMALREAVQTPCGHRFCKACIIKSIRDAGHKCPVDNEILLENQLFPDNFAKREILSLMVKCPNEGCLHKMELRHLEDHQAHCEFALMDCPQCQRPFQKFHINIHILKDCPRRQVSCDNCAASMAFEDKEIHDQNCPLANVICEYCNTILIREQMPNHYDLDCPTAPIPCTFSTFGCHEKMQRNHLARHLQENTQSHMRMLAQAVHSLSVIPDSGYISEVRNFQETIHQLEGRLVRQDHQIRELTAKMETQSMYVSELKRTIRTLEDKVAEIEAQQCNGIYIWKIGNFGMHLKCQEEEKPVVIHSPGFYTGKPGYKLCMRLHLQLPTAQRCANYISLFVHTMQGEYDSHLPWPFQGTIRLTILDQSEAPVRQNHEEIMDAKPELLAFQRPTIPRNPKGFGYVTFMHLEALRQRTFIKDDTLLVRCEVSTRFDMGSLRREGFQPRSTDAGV

B1: CMTM6 (in HCC827-CT cells) (other, human, UniProt Q9NX76 1-183, looked up)
chain: MENGAVYSPTTEEDPGPARGPRSGLAAYFFMGRLPLLRRVLKGLQLLLSLLAFICEEVVSQCTLCGGLYFFEFVSCSAFLLSLLILIVYCTPFYERVDTTKVKSSDFYITLGTGCVFLLASIIFVSTHDRTSAEIAAIVFGFIASFMFLLDFITMLYEKRQESQLRKPENTTRAEALTEPLNA

Key:
MHC II = settings: IFNγ stimulation
[1] = target: T1, Tumor necrosis factor …; assay: co-immunoprecipitation and western blot, HCC827-CT cells

Molecule | higher levels of surface MHC class II in CMTM4 KO cells (MHC II) | binding result [1]
CCN(CC)CCCC(C)Nc1ccnc2cc(Cl)ccc12 (centres unmarked) [chloroquine] | abolished | –
B1 | – | no binding
